According to patent US11655492B2, “Activated formylglycine-generating enzymes and methods of producing and using the same” (R.P. Scherer Technologies, LLC, priority 2015, dated 2023):
Several values for one entry are separate records, joined by “and”; a condition that tells them apart may be missing. Equal values may be shown once.

Legend:
Hs-cFGE = target: T1, Hs-cFGE (Homo sapiens, UniProt Q8NBK3); conditions: 20 mM reducing agent on activated Hs-cFGE
T1 sequence (Q8NBK3 with tags, fused parts or gaps isoform Q8NBK3-4): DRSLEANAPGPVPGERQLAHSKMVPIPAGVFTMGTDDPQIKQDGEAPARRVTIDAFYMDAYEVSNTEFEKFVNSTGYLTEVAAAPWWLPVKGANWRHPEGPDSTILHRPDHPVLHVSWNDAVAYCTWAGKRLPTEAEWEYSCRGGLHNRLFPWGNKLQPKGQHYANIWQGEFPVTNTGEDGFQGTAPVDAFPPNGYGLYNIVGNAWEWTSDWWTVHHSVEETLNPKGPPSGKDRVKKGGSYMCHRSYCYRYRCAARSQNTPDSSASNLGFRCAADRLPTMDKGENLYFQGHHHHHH

Sc-FGE = Sc-FGE (Streptomyces coelicolor, UniProt Q9F3C7); format: biochemical, S. coelicolor
[1] = as measured versus glutathione disulfide; cited from earlier work
FGE = target: T2, FGE (Homo sapiens, UniProt Q8NBK3); assay: FGE reaction mixtures with reductants or additives (product formation); format: biochemical; conditions: reducing agent used as stoichiometric reductant, in large excess
T2 construct: made in house
T2 sequence (Q8NBK3 with tags, fused parts or gaps isoform Q8NBK3-4): T1 sequence (Q8NBK3 with tags, fused parts or gaps isoform Q8NBK3-4)
Experimental: The specific activity of FGE was measured using a discontinuous enzymatic activity assay. […] The rate of reaction was determined by integrating the peak areas at 215 nm of the substrate cysteine (Csub) and product (fGly) peptides on reversed-phase HPLC. […] Each aqueous reaction solution (120 μL) contained Csub (100 μM), FGE (0.1-1 μM), DTT (1 mM), and buffer (25 mM TEAM, pH 9). A single time course included 5 data points collected at evenly spaced intervals. The reaction was initiated upon addition of FGE stock solution and vortexing for 3 s. The reaction vial was vortexed at 1,500 RPM and 25° C. in a thermomixer R (Eppendorf). Time points were hand quenched by adding 20 μL of reaction mixture to 2 μL of 1 M HCl using a micropipettor. After completion of the reaction, each time point was analyzed by RP-HPLC (see below).
The conversion of Cys to fGly used a 2 H^+/2 e^− oxidation of the substrate Cys thiol as well as exchange of sulfur for oxygen. […] However, because O2 is a 4 H^+/4 e^− acceptor, a reducing agent was used to provide a second equivalent of 2 H^+ and 2 e^−, completing the reduction from O2 to 2 mol H2O. […] A mixture of reductant (DTT) and O2 was used for routine activity measurements.

CT-1.1 tagged Her2 = assay: 293 Expi transient co-transfection of FGE form and CT tagged antibody, conversion by mass-spectrometry; format: cell-based
Experimental: A 293 Expi transient co-transfection system (Life Technologies) was used for producing antibodies having a formylglycine residue at a selected site. The system produced high antibody titers (100-500 mg/L) with variable (10-95%) conversion. […] Expi 293F that were treated with or without 50 μM copper sulfate prior to transfection were transiently co-transfected in three independent experiments with expression plasmids for full-length human FGE with an N-terminal KDEL (SEQ ID NO:7) amino acid sequence (+KDEL) and CT tagged antibody at a ratio of 3:1 antibody:FGE DNA. The culture was harvested at 5-6 days post transfection, titer assessed by ELISA, and the protein was purified and conversion was measured by mass-spectrometry.
Expi 293F cells that were treated with or without 50 μM copper sulfate prior to transfection were transiently co-transfected with expression plasmids for various forms of human FGE (+KDEL, WT, myc-His) and CT tagged antibody at a ratio of 3:1 antibody:FGE DNA. The culture was harvested at 5 days post transfection, titer assessed by ELISA, the protein was purified and conversion was measured by mass-spectrometry.

ATP production = ATP production dose response (Cell titerglo, 4 hour treatment); format: cell-based
Experimental: (§2) Several experiments were run treating cells with DCA at several concentrations (DCA: 0 μM; 16 μM; 80 μM; 400 μM; 2000 μM; 10,000 μM; and 50,000 μM) and treating cells with Cu^2+ (copper sulfate) and rotenone (Rotenone: 0 nM; 5 nM; 24 nM; 120 nM; 600 nM; 3000 nM; and 15,000 nM) at several concentrations. Cells were plated and 10 μL of DCA or rotenone was added for a 4 hour treatment. Cells were equilibrated to room temperature 100 μL/well of Cell titerglo reagent (Promega) was added to each well. The plates were shaken of 2 min, incubated at room temperature for 10 min, and then read on a plate reader.

human FGE = human FGE (Homo sapiens, UniProt Q8NBK3); assay: Effect of stimulators and inhibitors of oxidative phosphorylation on conversion; format: cell-based; conditions: DCA 0-50,000 μM; rotenone 0-15,000 nM with Cu^2+
Experimental: Experiments were performed to determine the effect of stimulators and inhibitors of oxidative phosphorylation on conversion efficiency for human FGE, as compared to Cu^2+.
as §2

[2] = test system: 14 amino acid peptide ALCTPSRGSLFTGR (SEQ ID NO:8); assay: Discontinuous FGE activity assay on peptide substrate (RP-HPLC); format: biochemical
Experimental: [formula] where Et is the total enzyme in solution, and kcat and KM are the standard enzymatic parameters specified by the STRENDA commission. Units of enzyme specific activity are the katal, where 1 kat=1 mol·s^−1. Kinetic parameters were determined from nonlinear regression of [substrate] v. initial velocity using GraphPad prism.
The specific activity of FGE was measuring using a discontinuous enzymatic activity assay. The substrate for FGE was a 14 amino acid peptide containing the consensus sequence (H2N-[…]-COOH (SEQ ID NO:8)). The rate of reaction was determined by integrating the peak area at 215 nm of the starting material (Cys) and product (fGly) containing peptides on reversed-phase HPLC. The identity of product (and side product) peaks were determined by RP-HPLC MS/MS. Each aqueous reaction solution (60 μL) contained substrate peptide (100 μM), FGE (1 μM), DTT (1 mM), and buffer (25 mM triethanolamine, pH 9). A single time course consisted of 5 data points collected every 2 minutes. The reaction was initiated upon addition of FGE stock solution and vortexing for 3 s. Time points were quenched by diluting 10 μL of reaction mixture into 1 μL of 1 M HCl by hand with a micropipettor. After completion of the reaction, each time point was analyzed by RP-HPLC.
(§1) Substrate, product, and side products of the FGE substrate peptide […] (SEQ ID NO:8) were separated on RP-HPLC over 7 min with isocratic 18% MeCN in water containing 0.1% TFA. The integrated area of the fGly (2.1 min), Cys (3.3 min), βME-DS (3.6 min), and Cys-DS (6.2 min) forms of the substrate were used to calculate total area and each fraction thereof.
The specific activity of FGE was measured using a discontinuous enzymatic activity assay. The substrate for FGE was a 14 amino acid peptide containing the CXPXR consensus sequence ([…] (SEQ ID NO:8)). The rate of reaction was determined by integrating the peak areas at 215 nm of the substrate cysteine (Csub) and product (fGly) peptides on reversed-phase HPLC. The identities of product (and side product) peaks were determined by RP-HPLC MS/MS (see below). Each aqueous reaction solution (120 μL) contained Csub (100 μM), FGE (0.1-1 μM), DTT (1 mM), and buffer (25 mM TEAM, pH 9). A single time course included 5 data points collected at evenly spaced intervals. The reaction was initiated upon addition of FGE stock solution and vortexing for 3 s. The reaction vial was vortexed at 1,500 RPM and 25° C. in a thermomixer R (Eppendorf). Time points were hand quenched by adding 20 μL of reaction mixture to 2 μL of 1 M HCl using a micropipettor. After completion of the reaction, each time point was analyzed by RP-HPLC (see below).
as §1, with “integrated areas” for “integrated area”, “min), Csub” for “min), Cys”, “min), the Csub/βME disulfide (Csub-βME, 3.6” for “min), βME-DS (3.6”, “and substrate/substrate disulfide (Csub-Csub, 6.1” for “and Cys-DS (6.2”
Individual FGE reactions were initiated by rapidly mixing FGE into a premixed buffered solution of Csub and reducing agent. It was assumed that all buffered solutions contained oxygen at ˜270 μM at 25° C. (based upon Henry's law). Time points were chemically quenched by hand with HCl. […]. The identities of both the Cys- and fGly-containing peptides were confirmed by LC-MS/MS (FIG. 11). These assignments were then correlated with HPLC retention times (FIG. 14, panel a). The integrated peak areas of substrate and product were used to calculate the initial velocity of FGE (FIG. 14, panel b) using the method described by Boeker (Biochem. J., (1984), 223, 15; and Biochem. J., (1985), 226, 29).

[3] = test system: IgG containing the aldehyde tag; assay: In vitro conversion of intact mAb with FGE, fGly by LC-MRM/MS; format: biochemical
Experimental: DTT (20 mM) was added to a solution of mAb (20 μg) in buffered aqueous solution (25 mM NH4HCO3) to a final volume of 20 μL. The tube containing the sample was incubated at 37° C. for 15 min at 1500 RPM. Then, HCl (50 mM) was added to the solution and the tube was vortexed until mixed. Next, ammonium bicarbonate (100 mM) was added to the solution and the tube was vortexed until mixed. Trypsin (1 μg) and iodoacetamide (50 mM) were added, and the tube was incubated at 37° C. and 1500 RPM for 60 min in the dark. Finally, sodium citrate (150 mM, pH 5.5) and methoxylamine (100 mM) were added to the solution, and the tube was incubated at 37° C. for 16 h. The processed sample was then analyzed by LC-MRM/MS. The MRM transitions included modifications of the Cys-containing peptide including: cysteine, cysteine modified with iodoacetamide, formylglycine, formylglycine hydrate (including loss of water in the collision cell), and formylglycine methyl oxime. The abundance of each species was defined by its 5 most intense precursor/product ion pairs, which were integrated to give the total signal and relative fractions of each component. In the optimized digestion and capping procedure described above, unreacted Cys, fGly, or fGly-hydrate above background was not detected, observing only carboxyacetamidomethyl Cys (CAM) and the methyl oxime of fGly (MeOx). […]

[4] = nonlinear regression to Michaelis-Menten equation

Sc-FGE, sequence (Q9F3C7 whole entry): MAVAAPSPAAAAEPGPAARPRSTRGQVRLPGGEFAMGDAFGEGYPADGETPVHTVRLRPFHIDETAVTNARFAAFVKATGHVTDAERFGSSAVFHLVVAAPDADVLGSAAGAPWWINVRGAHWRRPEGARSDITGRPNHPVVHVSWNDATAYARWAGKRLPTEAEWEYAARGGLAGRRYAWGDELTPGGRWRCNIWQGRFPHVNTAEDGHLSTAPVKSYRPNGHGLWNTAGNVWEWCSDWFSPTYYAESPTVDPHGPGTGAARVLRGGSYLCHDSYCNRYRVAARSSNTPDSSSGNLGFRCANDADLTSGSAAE
human FGE, sequence (Q8NBK3 34-374): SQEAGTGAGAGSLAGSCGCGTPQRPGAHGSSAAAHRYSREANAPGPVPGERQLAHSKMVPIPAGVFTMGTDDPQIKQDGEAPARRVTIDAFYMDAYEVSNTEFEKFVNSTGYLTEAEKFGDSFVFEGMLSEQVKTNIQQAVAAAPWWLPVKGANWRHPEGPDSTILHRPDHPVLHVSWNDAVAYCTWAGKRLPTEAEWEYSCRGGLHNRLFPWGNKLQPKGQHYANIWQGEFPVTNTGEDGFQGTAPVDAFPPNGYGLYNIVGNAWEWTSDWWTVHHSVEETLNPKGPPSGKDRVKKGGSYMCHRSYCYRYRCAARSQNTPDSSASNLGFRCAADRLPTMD
Experimental for SQR: A Western blotting was performed on lysates from cells treated with Cu^2+ or not treated with Cu^2+, using antibodies against SQR to determine whether Cu^2+ increased the levels of SQR. […] Experiments were also performed to test whether overexpression of SQR in Expi cells could be a substitute for Cu^2+ in increasing conversion.

O[C@H](CS)[C@H](O)CS (racemic) [DTT, dithiothreitol]
effect of treatment on specific activity (Hs-cFGE): unchanged specific activity | effect of pretreatment of activated enzyme on specific activity (Sc-FGE; activated Sc-FGE, reductant and/or chelator, 15 mM each, 1 h, 37° C.): do not change | effect of pretreatment on specific activity (Sc-FGE; excess (100 molar equiv), 1 h at 25° C., reagent removed by gel filtration): did not change | thiol-disulfide exchange rate constant k [1]: 6×10^5 | rate of product formation (FGE): 3.27 min⁻¹

O=S(=O)([O-])[O-].[Cu+2] [Cu^2+, copper(II) sulfate]
levels of SQR (SQR): No significant difference | effect on conversion (CT-1.1 tagged Her2): enhances conversion | cell viability (CHO cells): does not significantly change

C=C(C)[C@H]1Cc2c(ccc3c2O[C@@H]2COc4cc(OC)c(OC)cc4[C@@H]2C3=O)O1 [rotenone, Rotenone]
ATP production (ATP production): affected ATP production as expected | effect on conversion (human FGE): no effect on conversion

OCCS [βME, β-mercaptoethanol]
thiol-disulfide exchange rate constant k [1]: 1 | rate of product formation (FGE): 5.07 min⁻¹

B1: Hs-cFGE: catalytic core of H. sapiens FGE with C-terminal His6 tag (SEQ ID NO. 11), expressed in Hi5 insect cells (protein)
chain: T1 sequence (Q8NBK3 with tags, fused parts or gaps isoform Q8NBK3-4)
increase of specific activity on activation ([2]; 5 molar equiv of CuSO4, 1 h at 25° C., activated vs as purified): 3 | specific activity ([2]; after activation with 5 molar equiv of CuSO4, 1 h at 25° C., excess copper removed): 3,050±115 pkat·mg^−1 | specific activity ([2]; as purified from cell culture, not activated): 1,143 pkat·mg^−1 and 1,143±84 pkat·mg^−1 | efficiency relative to bacterial counterpart (Sc-FGE) ([2]; from kcat/KM): approximately 10 fold | Km [2, 4]: 0.34 µM | kcat [2, 4]: 0.101 s⁻¹ | fGly content in the antibody ([3]; after in vitro conversion): 95-100% | conversion yield from Cys to fGly ([3]; in vitro conversion of aldehyde tagged mAb): 90-100% and > 90%
